# Experimental data: ChEMBL document CHEMBL5120804, “Total Syntheses and Anti-inflammatory Evaluations of Pongamosides A-C, Natural Furanoflavonoid Glucosides from Fruit of Pongamia pinnata (L.) Pierre” (J Nat Prod, 2022)
# The source made the active and inactive calls. No cut-off for these calls is given here.
# Tests used:
# [1] = system: RAW264.7; assay: Antiinflammatory activity in mouse RAW264.7 assessed as inhibition of LPS-induced NO production at 25 uM pretreated for 2 hrs followed by LPS addition and measured after 24 hrs; type: functional, cell-based; conditions: time 26.0 hrs
# [2] = system: RAW264.7; assay: Antiinflammatory activity in mouse RAW264.7 assessed as inhibition of LPS-induced NO production pretreated for 2 hrs followed by LPS addition and measured after 24 hrs; type: functional, cell-based
Structure (SMILES),Activity [1],IC50 [2] [µM]
COc1c(-c2ccccc2)oc2c(cc(O[C@@H]3O[C@H](CO)[C@@H](O)[C@H](O)[C@H]3O)c3occc32)c1=O,Active,
O=c1cc(-c2cccc(O)c2)oc2c1ccc1occc12,Active,27.3
COc1cc2c(=O)cc(-c3cccc(O)c3)oc2c2ccoc12,Active,
COc1c(-c2ccccc2)oc2c(cc(O)c3occc32)c1=O,Active,22.2
